Reference: PMC3207250 (2011)

Target: Jak2 (Homo sapiens, UniProt O60674)
Format: biochemical

Sequence of Jak2 (O60674 whole entry): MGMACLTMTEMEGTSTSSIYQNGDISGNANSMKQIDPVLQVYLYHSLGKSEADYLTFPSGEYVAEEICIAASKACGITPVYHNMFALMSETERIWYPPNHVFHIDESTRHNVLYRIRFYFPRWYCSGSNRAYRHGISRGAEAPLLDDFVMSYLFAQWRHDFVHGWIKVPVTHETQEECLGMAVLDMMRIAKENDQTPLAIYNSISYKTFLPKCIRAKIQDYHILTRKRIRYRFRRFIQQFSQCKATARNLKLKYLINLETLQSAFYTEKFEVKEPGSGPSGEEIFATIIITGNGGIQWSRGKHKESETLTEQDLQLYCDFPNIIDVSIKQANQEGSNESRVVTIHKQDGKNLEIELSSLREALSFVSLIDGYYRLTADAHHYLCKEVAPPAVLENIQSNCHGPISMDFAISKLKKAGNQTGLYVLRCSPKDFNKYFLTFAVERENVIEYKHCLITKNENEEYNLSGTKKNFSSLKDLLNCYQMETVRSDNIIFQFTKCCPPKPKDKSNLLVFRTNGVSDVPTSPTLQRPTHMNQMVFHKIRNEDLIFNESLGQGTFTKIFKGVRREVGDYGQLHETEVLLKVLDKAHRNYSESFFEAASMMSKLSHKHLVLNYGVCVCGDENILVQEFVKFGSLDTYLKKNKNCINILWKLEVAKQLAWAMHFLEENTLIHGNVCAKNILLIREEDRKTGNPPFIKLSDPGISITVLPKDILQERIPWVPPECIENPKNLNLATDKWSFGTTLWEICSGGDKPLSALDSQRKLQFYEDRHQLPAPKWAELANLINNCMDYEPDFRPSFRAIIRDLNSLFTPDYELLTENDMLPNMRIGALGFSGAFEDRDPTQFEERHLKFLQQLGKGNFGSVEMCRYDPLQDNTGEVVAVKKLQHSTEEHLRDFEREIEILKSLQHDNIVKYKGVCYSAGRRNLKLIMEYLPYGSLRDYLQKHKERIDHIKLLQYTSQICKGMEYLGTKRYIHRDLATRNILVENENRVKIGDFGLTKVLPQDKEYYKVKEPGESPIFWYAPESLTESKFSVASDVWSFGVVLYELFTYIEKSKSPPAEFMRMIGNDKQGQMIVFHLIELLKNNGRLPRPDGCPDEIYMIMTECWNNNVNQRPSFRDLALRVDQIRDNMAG

## NC(=O)Nc1sc(-c2ccc(F)cc2)cc1C(N)=O [TPCA-1, 2-[(Aminocarbonyl)amino]-5-(4-fluorophenyl)-3-thiophenecarboxamide]
  Ki: ~9 nM
